In ChEMBL document CHEMBL1144625, “A new platinum complex of triazine demonstrates G1 arrest with novel biological profile in human breast cancer cell line, MDA-MB-468” (Bioorg Med Chem Lett, 2007):

Tested on: MDA-MB-468
Experiment: Antiproliferative activity against MDA-MB-468 cells by MTT assay
Type: functional, cell-based
Conditions: Homo sapiens

Compound	IC50 [µM]
c1ccc(Sc2nc(N3CC3)nc(N3CC3)n2)nc1	> 100
c1ccc(Sc2nc(N3CCSCC3)nc(N3CCSCC3)n2)nc1	> 100
c1ccc(Sc2nc(N3CCOCC3)nc(N3CCOCC3)n2)nc1	> 100
